Assay results published in ChEMBL document CHEMBL4184197 (Bioorg Med Chem, 2018).

Key:
Salmonella typhimurium [1] = experiment: Mutagenicity in Salmonella typhimurium TA98 in presence of rat liver S9 fraction by Ames test; assay type: toxicity, organism-based; settings: salmonella enterica subsp. enterica serovar typhimurium
Salmonella typhimurium [2] = experiment: Mutagenicity in Salmonella typhimurium TA1535 in absence of rat liver S9 fraction by Ames test; assay type: toxicity, organism-based; settings: salmonella enterica subsp. enterica serovar typhimurium
[3] = biological target: Beta-2 adrenergic receptor (Homo sapiens) (UniProt P07550); experiment: Binding affinity to recombinant human beta2 receptor at 10 uM after 120 mins by scintillation counting analysis relative to control
Beta-2 adrenergic receptor (Homo sapiens), sequence (P07550 whole entry, looked up): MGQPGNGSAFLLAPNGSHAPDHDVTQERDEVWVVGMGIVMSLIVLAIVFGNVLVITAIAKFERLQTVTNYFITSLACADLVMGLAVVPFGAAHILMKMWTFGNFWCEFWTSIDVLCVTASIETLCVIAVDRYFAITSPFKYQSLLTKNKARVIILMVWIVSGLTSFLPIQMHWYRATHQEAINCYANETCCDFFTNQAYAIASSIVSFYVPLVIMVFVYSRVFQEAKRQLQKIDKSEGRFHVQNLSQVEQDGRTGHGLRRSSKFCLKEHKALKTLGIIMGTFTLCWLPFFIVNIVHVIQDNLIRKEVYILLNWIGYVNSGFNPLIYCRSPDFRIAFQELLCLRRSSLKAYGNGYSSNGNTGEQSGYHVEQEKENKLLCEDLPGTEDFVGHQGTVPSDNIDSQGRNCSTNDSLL

Homo sapiens = species: Homo sapiens; experiment: Binding affinity to central-type benzodiazepine receptor (unknown origin) at 10 uM relative to control
[4] = biological target: Cannabinoid receptor 1 (Homo sapiens) (UniProt P21554); experiment: Binding affinity to recombinant human CB1 at 10 uM after 120 mins by scintillation counting analysis relative to control
[5] = biological target: Cholecystokinin receptor type A (Homo sapiens) (UniProt P32238); experiment: Binding affinity to recombinant human CCK1 at 10 uM after 60 mins by scintillation counting analysis relative to control
Cholecystokinin receptor type A (Homo sapiens), sequence (P32238 whole entry): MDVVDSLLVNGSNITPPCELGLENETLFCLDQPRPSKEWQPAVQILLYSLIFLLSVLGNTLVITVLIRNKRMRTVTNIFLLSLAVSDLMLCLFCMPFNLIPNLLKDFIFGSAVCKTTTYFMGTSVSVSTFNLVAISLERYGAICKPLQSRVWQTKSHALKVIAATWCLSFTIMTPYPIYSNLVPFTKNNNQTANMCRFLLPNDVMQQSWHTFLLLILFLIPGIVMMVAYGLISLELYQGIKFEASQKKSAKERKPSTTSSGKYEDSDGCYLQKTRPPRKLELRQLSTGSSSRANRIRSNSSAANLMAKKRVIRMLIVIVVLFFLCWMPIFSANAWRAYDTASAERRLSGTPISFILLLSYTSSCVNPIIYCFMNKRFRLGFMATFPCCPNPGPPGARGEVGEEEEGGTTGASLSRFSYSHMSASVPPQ

[6] = biological target: D(3) dopamine receptor (Homo sapiens) (UniProt P35462); experiment: Binding affinity to recombinant human dopamine receptor D3 at 10 uM after 60 mins by scintillation counting analysis relative to control
D(3) dopamine receptor (Homo sapiens), sequence (P35462 whole entry): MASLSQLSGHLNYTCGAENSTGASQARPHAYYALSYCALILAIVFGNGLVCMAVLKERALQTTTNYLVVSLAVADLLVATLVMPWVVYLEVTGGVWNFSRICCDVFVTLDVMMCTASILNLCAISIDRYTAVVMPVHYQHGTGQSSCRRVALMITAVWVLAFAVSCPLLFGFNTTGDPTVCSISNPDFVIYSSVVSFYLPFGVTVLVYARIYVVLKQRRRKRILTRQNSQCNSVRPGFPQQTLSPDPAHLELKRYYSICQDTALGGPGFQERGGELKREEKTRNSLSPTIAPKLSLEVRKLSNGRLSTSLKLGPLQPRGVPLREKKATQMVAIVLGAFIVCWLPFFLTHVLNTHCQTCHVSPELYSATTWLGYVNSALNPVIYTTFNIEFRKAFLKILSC

Rattus norvegicus = species: Rattus norvegicus; experiment: Binding affinity to rat GABA receptor at 10 uM after 30 mins by scintillation counting analysis relative to control
[7] = biological target: Tumor necrosis factor receptor superfamily member 1A (Homo sapiens) (UniProt P19438); experiment: Binding affinity to recombinant human TNFalpha receptor at 10 uM after 120 mins by scintillation counting analysis relative to control
[8] = biological target: Muscarinic acetylcholine receptor M5 (Homo sapiens) (UniProt P08912); experiment: Binding affinity to recombinant human muscarinic M5 receptor at 10 uM after 60 mins by scintillation counting analysis relative to control
Muscarinic acetylcholine receptor M5 (Homo sapiens), sequence (P08912 whole entry): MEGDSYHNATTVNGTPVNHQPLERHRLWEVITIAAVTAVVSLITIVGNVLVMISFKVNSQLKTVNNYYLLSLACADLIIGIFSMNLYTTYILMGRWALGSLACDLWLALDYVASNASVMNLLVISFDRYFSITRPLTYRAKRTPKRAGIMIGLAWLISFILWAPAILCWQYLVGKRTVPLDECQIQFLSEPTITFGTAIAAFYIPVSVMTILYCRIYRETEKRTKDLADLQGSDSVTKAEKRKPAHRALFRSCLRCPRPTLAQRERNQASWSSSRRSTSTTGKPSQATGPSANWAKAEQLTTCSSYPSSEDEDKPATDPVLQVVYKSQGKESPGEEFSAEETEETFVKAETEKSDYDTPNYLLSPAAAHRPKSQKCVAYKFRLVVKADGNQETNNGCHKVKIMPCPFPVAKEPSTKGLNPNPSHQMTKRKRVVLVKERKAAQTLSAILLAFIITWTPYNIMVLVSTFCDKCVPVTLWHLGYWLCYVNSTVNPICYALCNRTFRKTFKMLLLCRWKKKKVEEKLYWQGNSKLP

[9] = biological target: Nociceptin receptor (Homo sapiens) (UniProt P41146); experiment: Binding affinity to recombinant human NOP receptor at 10 uM after 60 mins by scintillation counting analysis relative to control
Nociceptin receptor (Homo sapiens), sequence (P41146 whole entry): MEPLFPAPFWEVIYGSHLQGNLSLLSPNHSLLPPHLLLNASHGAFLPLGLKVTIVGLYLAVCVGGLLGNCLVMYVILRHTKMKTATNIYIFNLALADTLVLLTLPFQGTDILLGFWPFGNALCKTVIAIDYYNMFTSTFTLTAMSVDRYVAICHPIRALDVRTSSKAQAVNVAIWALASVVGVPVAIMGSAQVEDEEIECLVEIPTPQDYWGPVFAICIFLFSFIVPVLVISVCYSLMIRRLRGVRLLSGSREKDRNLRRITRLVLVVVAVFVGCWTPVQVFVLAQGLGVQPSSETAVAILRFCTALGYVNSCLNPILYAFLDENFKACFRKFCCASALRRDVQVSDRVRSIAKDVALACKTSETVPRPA

[10] = biological target: 5-hydroxytryptamine receptor 1B (Homo sapiens) (UniProt P28222); experiment: Binding affinity to recombinant human full length 5-HT1B receptor at 10 uM after 90 mins by scintillation counting analysis relative to control
5-hydroxytryptamine receptor 1B (Homo sapiens), sequence (P28222 whole entry): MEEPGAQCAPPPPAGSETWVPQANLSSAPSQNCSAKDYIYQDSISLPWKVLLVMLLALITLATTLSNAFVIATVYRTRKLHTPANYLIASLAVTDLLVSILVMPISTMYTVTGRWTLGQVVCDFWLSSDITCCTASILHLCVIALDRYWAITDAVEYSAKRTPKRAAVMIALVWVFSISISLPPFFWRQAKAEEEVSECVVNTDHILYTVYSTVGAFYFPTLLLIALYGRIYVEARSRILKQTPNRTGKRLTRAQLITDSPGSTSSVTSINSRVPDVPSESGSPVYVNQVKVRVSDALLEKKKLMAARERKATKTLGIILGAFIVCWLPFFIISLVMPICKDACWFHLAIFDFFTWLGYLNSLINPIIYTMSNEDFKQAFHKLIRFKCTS

[11] = test system: Voltage-gated potassium channel; experiment: Binding affinity to voltage-gated potassium channel (unknown origin) at 10 uM relative to control; assay type: protein assay; settings: human
[12] = biological target: Sodium-dependent serotonin transporter (Homo sapiens) (UniProt P31645); experiment: Binding affinity to 5-HT transporter (unknown origin) at 10 uM relative to control
Sodium-dependent serotonin transporter (Homo sapiens), sequence (P31645 whole entry, looked up): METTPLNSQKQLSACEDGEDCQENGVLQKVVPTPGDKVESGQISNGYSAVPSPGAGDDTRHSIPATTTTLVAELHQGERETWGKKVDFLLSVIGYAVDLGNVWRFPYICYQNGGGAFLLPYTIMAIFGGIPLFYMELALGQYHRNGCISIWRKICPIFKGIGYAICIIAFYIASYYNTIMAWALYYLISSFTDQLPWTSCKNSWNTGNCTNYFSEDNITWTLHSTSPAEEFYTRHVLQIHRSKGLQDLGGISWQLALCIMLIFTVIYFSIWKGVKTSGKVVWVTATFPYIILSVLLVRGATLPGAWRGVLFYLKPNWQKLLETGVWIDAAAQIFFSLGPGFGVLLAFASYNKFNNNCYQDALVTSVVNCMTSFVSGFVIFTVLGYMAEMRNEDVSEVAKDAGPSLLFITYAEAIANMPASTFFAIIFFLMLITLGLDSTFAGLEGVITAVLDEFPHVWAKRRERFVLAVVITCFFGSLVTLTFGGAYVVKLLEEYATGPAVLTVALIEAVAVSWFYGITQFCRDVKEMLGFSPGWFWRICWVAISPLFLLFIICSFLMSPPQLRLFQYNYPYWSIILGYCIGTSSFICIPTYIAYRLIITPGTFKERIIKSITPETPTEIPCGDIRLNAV

[13] = biological target: Endothelin-converting enzyme 1 (Homo sapiens) (UniProt P42892); experiment: Binding affinity to ECE-1 (unknown origin) at 10 uM relative to control
[14] = biological target: Cathepsin D (Homo sapiens) (UniProt P07339); experiment: Binding affinity to human cathepsin D at 10 uM after 30 mins by fluorescence assay relative to control
Cathepsin D (Homo sapiens), sequence (P07339 65-162 limits assumed): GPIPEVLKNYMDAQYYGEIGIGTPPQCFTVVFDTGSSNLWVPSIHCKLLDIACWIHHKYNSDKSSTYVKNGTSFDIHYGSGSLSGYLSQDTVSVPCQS
Cathepsin D (Homo sapiens), sequence (P07339 169-412 limits assumed): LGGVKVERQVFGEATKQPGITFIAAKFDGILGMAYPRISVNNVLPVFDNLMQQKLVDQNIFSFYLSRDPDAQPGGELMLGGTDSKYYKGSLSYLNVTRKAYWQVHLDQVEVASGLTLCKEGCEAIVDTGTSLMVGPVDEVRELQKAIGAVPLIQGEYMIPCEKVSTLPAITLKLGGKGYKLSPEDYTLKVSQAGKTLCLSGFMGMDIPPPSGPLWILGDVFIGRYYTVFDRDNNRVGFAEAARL

[15] = biological target: Interstitial collagenase (Homo sapiens) (UniProt P03956); experiment: Binding affinity to human MMP1 at 10 uM after 20 mins by fluorescence assay relative to control
Interstitial collagenase (Homo sapiens), sequence (P03956 whole entry): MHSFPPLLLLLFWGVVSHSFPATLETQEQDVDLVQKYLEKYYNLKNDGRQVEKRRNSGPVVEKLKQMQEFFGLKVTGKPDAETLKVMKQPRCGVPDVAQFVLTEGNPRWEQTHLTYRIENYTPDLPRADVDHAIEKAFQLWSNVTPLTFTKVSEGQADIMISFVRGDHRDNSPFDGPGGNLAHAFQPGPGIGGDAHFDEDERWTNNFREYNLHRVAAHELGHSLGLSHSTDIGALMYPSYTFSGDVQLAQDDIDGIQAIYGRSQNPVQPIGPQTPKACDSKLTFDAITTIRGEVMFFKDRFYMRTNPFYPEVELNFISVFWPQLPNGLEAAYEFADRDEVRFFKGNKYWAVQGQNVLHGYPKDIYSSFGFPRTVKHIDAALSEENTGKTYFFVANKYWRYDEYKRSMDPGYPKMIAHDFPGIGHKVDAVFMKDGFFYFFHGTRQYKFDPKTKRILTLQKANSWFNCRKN

[16] = biological target: Proto-oncogene tyrosine-protein kinase Src (Homo sapiens) (UniProt P12931); experiment: Binding affinity to recombinant human Src at 10 uM after 10 mins by LANCE assay relative to control
Proto-oncogene tyrosine-protein kinase Src (Homo sapiens), sequence (P12931 2-536 limits assumed): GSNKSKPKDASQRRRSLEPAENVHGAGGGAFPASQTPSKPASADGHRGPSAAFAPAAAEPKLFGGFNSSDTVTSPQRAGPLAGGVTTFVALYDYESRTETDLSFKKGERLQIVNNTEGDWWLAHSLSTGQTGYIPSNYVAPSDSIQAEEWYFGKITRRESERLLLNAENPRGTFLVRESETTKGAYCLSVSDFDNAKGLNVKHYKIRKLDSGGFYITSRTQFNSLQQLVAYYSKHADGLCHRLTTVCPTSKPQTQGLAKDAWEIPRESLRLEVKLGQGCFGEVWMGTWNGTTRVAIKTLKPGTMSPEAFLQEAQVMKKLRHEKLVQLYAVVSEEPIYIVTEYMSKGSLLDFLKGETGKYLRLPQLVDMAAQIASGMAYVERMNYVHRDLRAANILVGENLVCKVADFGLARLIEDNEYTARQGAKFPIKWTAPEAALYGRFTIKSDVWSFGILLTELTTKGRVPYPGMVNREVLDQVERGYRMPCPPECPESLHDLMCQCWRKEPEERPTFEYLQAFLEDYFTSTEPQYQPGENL

[17] = biological target: Histone deacetylase 3 (Homo sapiens) (UniProt O15379); experiment: Binding affinity to recombinant human HDAC3 at 10 uM after 10 mins by fluorescence analysis relative to control
Histone deacetylase 3 (Homo sapiens), sequence (O15379 whole entry): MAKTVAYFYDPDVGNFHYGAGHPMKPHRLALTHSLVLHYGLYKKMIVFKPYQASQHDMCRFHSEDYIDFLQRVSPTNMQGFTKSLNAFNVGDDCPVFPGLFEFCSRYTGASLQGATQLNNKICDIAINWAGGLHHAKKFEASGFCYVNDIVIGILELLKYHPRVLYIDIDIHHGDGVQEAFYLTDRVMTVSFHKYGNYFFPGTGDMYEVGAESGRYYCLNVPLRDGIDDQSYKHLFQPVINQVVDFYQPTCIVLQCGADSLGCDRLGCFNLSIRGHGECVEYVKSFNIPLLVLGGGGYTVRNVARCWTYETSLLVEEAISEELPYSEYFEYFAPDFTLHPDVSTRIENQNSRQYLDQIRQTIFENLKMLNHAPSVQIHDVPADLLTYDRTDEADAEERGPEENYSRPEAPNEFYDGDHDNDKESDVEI

[18] = biological target: NAD-dependent protein deacetylase sirtuin-1 (Homo sapiens) (UniProt Q96EB6); experiment: Binding affinity to surtuin-1 (unknown origin) at 10 uM by relative to control

CCOc1c(Cl)cc(C(=O)Nc2ccc(C(=O)O)c(C)c2)cc1OC(C)C
Activity (Salmonella typhimurium [1]): Non-Toxic
Activity (Salmonella typhimurium [2]): Non-Toxic
Activity [3]: < 25%
Activity (Homo sapiens): < 25%
Activity [4]: < 25%
Activity [5]: < 25%
Activity [6]: < 25%
Activity (Rattus norvegicus): < 25%
Activity [7]: < 25%
Activity [8]: < 25%
Activity [9]: < 25%
Activity [10]: < 25%
Activity [11]: <= 25%
Activity [12]: < 25%
Activity [13]: < 25%
Activity [14]: < 25%
Activity [15]: < 25%
Activity [16]: < 25%
Activity [17]: < 25%
Activity [18]: < 25%
